SMILES strings stand for the structures. Where two headings read alike, the source gives them in different places.

Data set [1] in a line: Pharmacokinetic evaluation of plasma levels of theophylline after oral dosing. Format: in vivo, A/J mice. To be noted: for concentration at 15 min / concentration at 30 min / concentration at 60 min / concentration at 240 min: A/J, mouse, plasma; for concentration at 15 min: 15 minutes post dosing; for concentration at 60 min: 60 minutes post dosing; for concentration at 240 min: 240 minutes post dosing. On the procedure: The collected blood was mixed and decanted into eppendorf tubes before centrifugation in a microftige. Plasma was collected and stored at −80° C. prior to analysis by an HPLC/MS/MS method. The equipment used in the measurement of plasma levels were a Micromann Quatro Micro Mass Spectrometer (Micromass UK Limited) and a Waters 2795 Alliance HT liquid chromatograph (Waters USA).
Samples were prepared for analysis by adding 200 μl of acetonitrile (containing 0.25 mg/l dextrorphan as an internal standard) to 50 μl of each thawed sample and standard and mixed vigorously. Each sample and standard was then centrifuged at 1000 g for 2 minutes and the supernatant removed for LC-MS/MS analysis.
Analysis of theophylline and dextrorphan was carried out using reverse phase HPLC with tandem mass spectrometric detection (LC-MS/MS). Positive ions for parent compound and a specific fragment product were monitored in a Multiple Reaction Monitoring mode using a Micromass Quatro Micro Mass Spectrometer with Micromass MassLynx software version 4.0. A 25 μl aliquot of each sample and standard was injected onto the liquid chromatography system.

The conditions of data set [2]: cited from earlier work.
The conditions of data set [3]: 250 or 375 mg theophylline with 400 μg budesonide twice daily, asthma patients; cited from earlier work.
Data set [4] concerns TS induced inflammation (cells recovered in the BAL). As to the kind of experiment: Tobacco smoke (TS) induced inflammation, BAL cell counts 24 h after 11 daily exposures. Format: in vivo, A/J mice. The note with it: for Inhibition, Total Cells (BAL) / Inhibition, Eosinophils (BAL) / Inhibition, Epithelial Cells (BAL) / Inhibition, Lymphocytes (BAL) / Inhibition, Macrophages (BAL) / Inhibition, Neutrophils (BAL): 11 daily TS exposures. From the text: Female inbred AJ mice (body weights on initial day of use: 17.2-27.4 g) were obtained from Harlan, full barrier bred and certified free from specified micro-organisms on receipt. The mice were housed, up to 5 per cage, in individually ventilated, polycarbonate solid bottomed cages (IVC) with grade 8 aspen chip bedding. Environment (airflow, temperature and humidity) within the cages was controlled by the IVC system (Techniplast). Food (RM 1, Special Diet Services) and water were provided ad libitum. Individual animals were identified by unique coloured “pentel” markings on their tails, weighed and randomly assigned to treatment groups.
The required quantity of compound was placed into a mortar. Half the required volume CMC was slowly added to form a fine paste and then this was carefully added back to a container. The residual volume of CMC required to achieve the required dose is used to wash out the mortar and the washings added back to the container. For the combination dose, each compound was formulated at double the final required concentration and an equal volume of each compound added together. […]
In this exposure protocol, mice were exposed in groups of 5 in individual clear polycarbonate chambers (27 cm×16 cm×12 cm). The TS from the cigarettes was allowed to enter the exposure chambers at a flow rate of 100 ml/min. In order to minimise any potential problems caused by repeated exposure to a high level of TS (6 cigarettes), the exposure of the mice to TS was increased gradually over the exposure period to a maximum of 6 cigarettes. The exposure schedule used in this study was as follows:
(§1) The trachea was cannulated using a Portex nylon intravenous cannula (pink luer fitting) shortened to approximately 8 mm. Phosphate buffered saline (PBS) containing heparin (10 units/ml) was used as the lavage fluid. A volume of 0.4 ml was gently instilled and withdrawn 3 times using a 1 ml syringe and then placed in an Eppendorf tube and kept on ice prior to subsequent determinations.
(§2) Lavage fluid was separated from cells by centrifugation and the supernatant decanted and frozen for subsequent analysis. The cell pellet was re-suspended in a known volume of PBS and total cell numbers calculated by counting a stained (Turks stain) aliquot under a microscope using a haemocytometer.
(§3) The residual cell pellet was diluted to approximately 10^5 cells per ml. A volume of 500 μl was placed in the funnel of a cytospin slide and centrifuged for 8 min at 800 rpm. The slide was air dried and stained using ‘Kwik-Diff’ solutions (Shandon) as per the proprietary instructions. When dried and cover-slipped, differential cells were counted using light microscopy. Up to 400 cells were counted by un biased operator using light microscopy. Cells were differentiated using standard morphometric techniques.
In addition, animals receiving steroid or the steroid combination were dosed with steroid 20 h prior to the first TS exposure. The control group of mice (shams) received vehicle on days 1 to 11 and were exposed to air daily for a maximum of 50 minutes per day. BAL was performed on day 12, 24 h following the eleventh and final TS exposure.
Since tests for normality were positive the data was subjected to a one way analysis of variance test (ANOVA), followed by a Bonferroni correction for multiple comparisons in order to test for significance between treatment groups. A “p” value of <0.05 was considered to be statistically significant. Percentage inhibitions were automatically calculated within the Excel spreadsheets for the cell data using the formula below: […]
Animals were sacrificed 24 h post the final exposure to TS/air. A BAL was performed and the total number of cells recovered counted. Data are presented as individual points and the mean values shown. Data are from 9-10 animals per group. Statistical analysis was by ANOVA. A “p” value of <0.05 was considered statistically significant. ns=not statistically significant.

The next data set relates to phosphodiesterases. To be noted: cited from earlier work.
The test system of data set [5] is adenosine receptors (A1 and A2 receptors). The note with it: at therapeutic concentrations; cited from earlier work.
The subject of data set [6] is LPS induced increases in BAL cells. As to the kind of experiment: LPS challenge induced inflammation, BAL cell counts 24 h post challenge. Format: in vivo, A/J mice. On the procedure:
Previous studies have shown that peak BAL neutrophilia is achieved 24 h post intranasal challenge with LPS at 0.3 μg. In the studies reported here this dose of LPS and this time point were employed. Control animals received phosphate buffered saline (PBS) intranasally.
Approximately 3 min prior to intra-nasal challenge anaesthesia was induced by isofluorane inhalation. Vehicle (PBS) or LPS was instilled at 50 μl per mouse. The LPS concentration was 6 μg/ml (0.3 μg per mouse). Animals were allowed to recover in a heated box at 37° C. and then returned to the home cage.
as §1, §2, §3
Animals were sacrificed 24 h post the LPS challenge. A BAL was performed and the total number of cells recovered counted. Data are presented as individual points and the mean values shown. Data are from 9-10 animals per group. Statistical analysis was by ANOVA. […]

[7] abbreviates: theophylline 3 mg/kg p.o. twice daily, BAL 24 h post.
Setting [8] is: dexamethasone 0.3 mg/kg p.o. twice daily, BAL 24 h post.
[9] abbreviates: dexamethasone 0.3 mg/kg p.o. at -20, -1 and 6 h relative to LPS (0.3 μg i.n.), BAL 24 h post challenge.

As for `Cn1c(=O)c2[nH]cnc2n(C)c1=O` [Theophylline, 3,7-dihydro-1,3-dimethyl-1H-purine-2,6-dione], in data set [1] (oral dose 0.3 mg/kg, mean ± SD), the concentration at 15 min was 130 ± 6 ng/mL, the concentration at 60 min is 256 ± 198 ng/mL and the concentration at 240 min worked out at 65 ± 11 ng/mL. The compound further came in with a concentration at 30 min in data set [1] (oral dose 0.3 mg/kg, 30 minutes post dosing, mean ± SD) of 140 ± 25 ng/mL. Further, in data set [1] (oral dose 1 mg/kg, mean ± SD), the concentration at 15 min stood at 740 ± 760 ng/mL, the concentration at 60 min was found to be 410 ± 84 ng/mL and the concentration at 240 min was 60 ± 15 ng/mL. Besides, the concentration at 30 min in data set [1] (oral dose 1 mg/kg, 30 minutes post dosing, mean ± SD) came to 660 ± 122 ng/mL. Besides, in data set [1] (oral dose 3 mg/kg, mean ± SD), the concentration at 15 min was found to be 1860 ± 290 ng/mL, the concentration at 60 min is 1470 ± 110 ng/mL and the concentration at 240 min stood at 90 ± 100 ng/mL. This compound displayed a concentration at 30 min in data set [1] (oral dose 3 mg/kg, 30 minutes post dosing, mean ± SD) of 3660 ± 2640 ng/mL. Also, the “Plasma concentrations at all time points” value in data set [1] (oral dose 0.3 mg/kg) is given as “less than 1 mg/l”. Also, the “Time of peak levels” value in data set [1] (oral dose 3 mg/kg) came out at 30 min. Besides, the “Plasma level of the one animal above 5 mg/l” value in data set [1] (oral dose 3 mg/kg, 30 minute time point, single animal) turned out to be 6.7 mg/A. Also, the “Plasma Levels” value in data set [1] (oral dose 3 mg/kg, 30 minutes post dosing, mean ± SD, 3 mg/kg) was 3660 ± 2640 ng/mL. Also, the Bioavailability in data set [2] (absorption from the gastrointestinal tract) is given as 90-100%. Further, the Mean plasma half-life result in data set [2] (adults) is “about 8 hours”. Besides, the “Plasma levels regarded as being necessary for anti-inflammatory efficacy” value in data set [2] (in vivo) was 10000 to 20000 ng/mL. Moreover, the Plasma half-life result in data set [2] (premature neonates) was “approximately 30 hours”. In data set [2] (slowed by the presence of food), the “Time to peak levels following ingestion” value is 1 to 2 h. For the same compound, the Plasma half-life result in data set [2] (up to the age of 20) is on record as “approximately 3.5 hours”. In addition, the “Plasma concentration achieved (median value)” value in data set [3] is 8700 ng/mL. Also, in data set [4] (theophylline 3 mg/kg alone p.o., 1 h prior to and 6 h post TS, 11 days), the “Inhibitory effect on any of the specific cell types (BAL)” value is listed as “No statistically significant inhibitory effect”. Also, in data set [4] (theophylline 3 mg/kg p.o. twice daily (-1 h and +6 h), BAL 24 h post final exposure), the “Inhibition, Total Cells (BAL)” value is listed as −11%. For the same compound, in data set [4] (setting [7]), the “Inhibition, Eosinophils (BAL)” value is −56%; the “Inhibition, Epithelial Cells (BAL)” value is reported as −18%; the “Inhibition, Lymphocytes (BAL)” value was determined as 1%; the “Inhibition, Macrophages (BAL)” value is −4%. For the same compound, the “Inhibition, Neutrophils (BAL)” value in data set [4] (setting [7]) is reported as −10%. For the same compound, the “Anti-inflammatory activity in the COPD (TS) model” value in data set [4] (theophylline given alone) was “failed to demonstrate any significant anti-inflammatory activity”. Besides, the Inhibition of phosphodiesterases result in the data set with phosphodiesterases was “weak and nonselective inhibitor”. In data set [5], the “Inhibition of adenosine receptors (antagonism of A1 and A2 receptors)” value is “potent inhibitor”. In addition, the “Activity on LPS induced pulmonary inflammation” value in data set [6] (theophylline at the dose level tested (0.3 mg/kg p.o.)) is reported as “without activity”.
For `C[C@@H]1C[C@H]2[C@@H]3CCC4=CC(=O)C=C[C@]4(C)[C@@]3(F)[C@@H](O)C[C@]2(C)[C@@]1(O)C(=O)CO` [Dexamethasone, dexamethasone], in data set [4] (setting [8]), the “Inhibition, Eosinophils (BAL)” value is given as −94%; the “Inhibition, Epithelial Cells (BAL)” value is recorded as −20%; the “Inhibition, Lymphocytes (BAL)” value was −7%; the “Inhibition, Macrophages (BAL)” value was −14%. Further, in data set [4] (setting [8]), the “Inhibition, Neutrophils (BAL)” value was −46% and the “Inhibition, Total Cells (BAL)” value was −16%. Besides, in data set [6] (setting [9]), the “Reduction of neutrophils in BAL” value is 71% and the “Reduction of total cells in BAL” value is 68%.

Source of the values: patent publication US20080318912A1, “Medicaments for Treating Chronic Respiratory Disease” (priority 2004, published 2008).
